# Where two headings read alike, the source gives them in different places.
# Columns and labels:
# pKa of acids = format: physicochemical
# [1] = cited from earlier work
# [2] = preservative concentration 0.18% in carbomer gel (propylparaben 0.05% listed in next row)
# [3] = preservative concentration 0.01% in carbomer gel
# [4] = preservative concentration 0.1% in carbomer gel
Compound,acid strength relative to nitrous acid (pKa of acids),"Appearance [1, 2]","Compatible [1, 2]","Appearance [1, 3]","Compatible [1, 3]","Appearance [1, 4]","Compatible [1, 4]"
O=C(O)/C=C\C(=O)O [Maleic acid],about 30 times,–,–,–,–,–,–
COC(=O)c1ccc(O)cc1 [Methylparaben],–,Clear,Yes,–,–,–,–
O=C([O-])c1ccccc1.[Na+] [Sodium Benzoate],–,–,–,Clear,Yes,Cloudy,No
C[CH2][Hg][S]c1ccccc1C(=O)[O-].[Na+] [Thiomersal],–,–,–,Clear,Yes,Clear,Yes
Benzalkonium Chloride,–,–,–,Clear,Yes,Cloudy,No
